Test results as given in patent US20260325533A1, “CDK INHIBITOR COMPOUNDS” (ALEKSIA THERAPEUTICS, INC., priority 2023, published 2026).
Where two headings read alike, the source gives them in different places.

Columns and labels:
Type in all cases: biochemical
[1] = molecular target: CDK4/CCND3 (Homo sapiens, UniProt P11802); assay: CDK4 homogeneous time-resolved fluorescence (HTRF) kinase assay; settings: CDK4/CCND
Protocol: (§1) A CDK homogeneous time-resolved fluorescence (HTRF) assay was used to assess the potency of the compounds described herein.
(§2) To an untreated 384-well microtiter plate (ProxiPlate) was added 100 nL 100×test compound in DMSO and 5 μL 2×CDK enzyme in assay buffer (50 mM HEPES, 1 mM EGTA, 10 mM MgCl2, 0.01% Tween 20, 2 mM DTT). The plate was centrifuged at 800 RPM for 1 min then incubated for 20 min at 23 °C. 2.5 μL per well of 4×ATP and 2.5 μL 4×ULight™-eIF4E-binding protein 1 (Thr37/46) Peptide substrate were added to all wells. After addition, the plates were centrifuged at 800 RPM for 1 min. The plates were incubated at 23 °C for 60 min. 5 μL per well 4×EDTA solution were added to each well to stop the reaction. 5 μL 4×LANCE Ultra Europium-anti-phospho-eIF4E-binding protein 1 (Thr37/46) antibody were added to each well and the plate was centrifuged for 1 min at 800 RPM. The plate was incubated for 60 min at 23 °C. Fluorescence was read at 340 nm excitation and 665 nm emission on an EnVision 2105 fluorescence reader. The final concentrations of reagents in the activity assay were 1.5 nM CDK4/CCND3, 1 mM ATP, 50 nM ULight™-eIF4E-binding protein 1 (Thr37/46) Peptide substrate, 1% DMSO, 10 mM EDTA, and 2 nM LANCE Ultra Europium-anti-phospho-eIF4E-binding protein 1 (Thr37/46).
(§3) Dose-response titrations were conducted by using an 11-point, half-logarithmic serial dilution scheme typically starting at 10 μM. Signals were reported as fluorescence units at 665 nm or the ratio of fluorescence units at 665 nm/fluorescence units at 615 nm. Signals are referred to below as “Lance signals”.
(§4) Using this assay, the IC50 values of example compounds were determined. Table 3 illustrates the IC50 for various Example compounds of Formula IA. Table 4 illustrates the IC50 for various other Example compounds of Formula I. ND=not determined.

[2] = molecular target: CDK1/CCNB1 (Homo sapiens, UniProt P06493); assay: CDK1 homogeneous time-resolved fluorescence (HTRF) kinase assay; settings: CDK1/CCNB
Chain of CDK1/CCNB1 (P06493 whole entry): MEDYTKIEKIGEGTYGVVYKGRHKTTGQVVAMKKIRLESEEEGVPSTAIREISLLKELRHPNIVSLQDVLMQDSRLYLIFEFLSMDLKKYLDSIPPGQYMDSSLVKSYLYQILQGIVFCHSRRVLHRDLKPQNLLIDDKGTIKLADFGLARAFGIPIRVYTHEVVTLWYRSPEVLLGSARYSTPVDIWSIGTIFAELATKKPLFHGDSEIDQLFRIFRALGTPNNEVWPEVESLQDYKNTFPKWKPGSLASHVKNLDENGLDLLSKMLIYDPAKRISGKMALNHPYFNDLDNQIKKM
Chain of CDK1/CCNB1 (P14635 whole entry partner): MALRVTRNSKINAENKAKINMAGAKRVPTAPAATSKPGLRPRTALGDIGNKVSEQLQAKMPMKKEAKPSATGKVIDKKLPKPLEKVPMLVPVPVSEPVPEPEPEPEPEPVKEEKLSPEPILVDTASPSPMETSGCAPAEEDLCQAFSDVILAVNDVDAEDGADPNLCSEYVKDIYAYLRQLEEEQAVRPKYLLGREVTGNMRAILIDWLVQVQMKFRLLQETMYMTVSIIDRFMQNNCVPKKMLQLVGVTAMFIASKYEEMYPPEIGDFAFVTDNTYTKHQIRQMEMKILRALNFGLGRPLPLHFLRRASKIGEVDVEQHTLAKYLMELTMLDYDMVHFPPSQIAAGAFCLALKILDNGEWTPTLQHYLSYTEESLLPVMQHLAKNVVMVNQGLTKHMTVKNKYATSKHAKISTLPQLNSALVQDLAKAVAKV
How it was run: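 Kinase activity is measured as Lance signal (665 nm, or 665/615 nm ratio) from europium-labelled anti-phospho-Thr37/46 antibody binding ULight-4E-BP1 peptide. Reactions contain 0.5 nM enzyme, 1 mM ATP, 1% DMSO and run 60 min at 23 °C before EDTA quench.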

[3] = molecular target: CDK6/CCND1 (Homo sapiens, UniProt Q00534); assay: CDK6 homogeneous time-resolved fluorescence (HTRF) kinase assay; settings: CDK6/CCND
Chain of CDK6/CCND1 (Q00534 whole entry): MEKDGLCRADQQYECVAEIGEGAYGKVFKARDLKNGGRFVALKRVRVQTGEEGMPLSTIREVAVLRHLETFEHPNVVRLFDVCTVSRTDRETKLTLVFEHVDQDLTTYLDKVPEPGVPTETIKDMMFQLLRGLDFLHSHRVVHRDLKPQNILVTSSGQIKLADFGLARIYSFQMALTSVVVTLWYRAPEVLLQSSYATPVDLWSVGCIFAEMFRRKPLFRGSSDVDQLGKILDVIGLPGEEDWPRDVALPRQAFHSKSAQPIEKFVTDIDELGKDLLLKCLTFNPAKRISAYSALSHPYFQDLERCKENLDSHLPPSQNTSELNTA
Chain of CDK6/CCND1 (P24385 whole entry partner): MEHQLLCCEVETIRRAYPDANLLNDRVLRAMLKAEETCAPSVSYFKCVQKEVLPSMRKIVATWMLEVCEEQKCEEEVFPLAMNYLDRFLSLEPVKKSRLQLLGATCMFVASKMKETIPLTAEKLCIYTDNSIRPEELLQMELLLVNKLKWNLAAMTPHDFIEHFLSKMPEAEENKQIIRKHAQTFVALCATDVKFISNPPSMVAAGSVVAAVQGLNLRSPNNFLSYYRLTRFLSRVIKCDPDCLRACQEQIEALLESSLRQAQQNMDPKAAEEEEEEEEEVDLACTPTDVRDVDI
Protocol: as §1
as §2, with “1” for “1.5”, “CDK6/CCND1,” for “CDK4/CCND3,”
as §3, §4

[4] = molecular target: CDK2/CCNE1 (Homo sapiens, UniProt P24941); assay: CDK2 homogeneous time-resolved fluorescence (HTRF) kinase assay; settings: CDK2/CCNE
How it was run: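 CDK2/CCNE1 (3 nM) preincubated 20 min at 23 °C with compound, then reacted 60 min at 23 °C with 1 mM ATP and 50 nM ULight-4E-BP1 (Thr37/46) peptide. Stopped with EDTA, phospho-peptide detected by Eu-anti-phospho antibody (665 nm or 665/615 ratio). IC50 from 11-point half-log titrations typically starting at 10 μM.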

[5] = 25-250 nM marked x, read-out: CDK4/CCND IC50 25-250 nM
[6] = >250 nM marked x, read-out: CDK1/CCNB IC50 >250 nM
[7] = 25-250 nM marked x, read-out: CDK6/CCND IC50 25-250 nM
[8] = <25 nM, read-out: CDK2/CCNE IC50 <25 nM
[9] = <25 nM, read-out: CDK4/CCND IC50 <25 nM
[10] = 25-250 nM marked x, read-out: CDK1/CCNB IC50 25-250 nM
[11] = <25 nM, read-out: CDK6/CCND IC50 <25 nM
[12] = x = IC50 >250 nM, read-out: CDK4/CCND IC50 (>250 nM column)
[13] = x = IC50 >250 nM, read-out: CDK6/CCND IC50 (>250 nM column)

Chain of CDK4/CCND3 (P11802 whole entry): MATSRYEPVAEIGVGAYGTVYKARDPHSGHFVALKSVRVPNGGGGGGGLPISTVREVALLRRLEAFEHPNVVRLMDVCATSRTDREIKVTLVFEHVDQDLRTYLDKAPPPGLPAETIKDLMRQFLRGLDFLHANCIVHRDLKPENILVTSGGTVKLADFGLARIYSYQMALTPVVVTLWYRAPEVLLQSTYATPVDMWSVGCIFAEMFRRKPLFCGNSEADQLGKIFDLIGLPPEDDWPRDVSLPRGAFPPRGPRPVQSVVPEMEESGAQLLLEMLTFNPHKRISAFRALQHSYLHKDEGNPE
Chain of CDK4/CCND3 (P30281 whole entry partner): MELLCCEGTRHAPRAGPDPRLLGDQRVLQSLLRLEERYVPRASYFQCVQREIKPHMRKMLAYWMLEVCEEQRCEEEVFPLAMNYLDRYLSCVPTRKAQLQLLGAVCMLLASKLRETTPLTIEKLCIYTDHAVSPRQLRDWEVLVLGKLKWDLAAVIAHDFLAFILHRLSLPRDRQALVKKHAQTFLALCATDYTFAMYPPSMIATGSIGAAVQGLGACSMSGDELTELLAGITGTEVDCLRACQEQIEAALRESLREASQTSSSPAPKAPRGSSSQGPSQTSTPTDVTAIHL

SMILES	IC50 [1, 5]	IC50 [2, 6]	IC50 [3, 7]	IC50 [4, 8]	IC50 [2, 10]	other results
CS(=O)(=O)N1CCC(Nc2cc3c(N4CCC(O)C4)nccc3cn2)CC1 (racemic) [Ex 26, 1-(7-((1-(methylsulfonyl)piperidin-4-yl)amino)-2,6-naphthyridin-1-yl)pyrrolidin-3-ol]	25 to 250 nM	> 250 nM	25 to 250 nM	< 25 nM		
CS(=O)(=O)N1CCC(Nc2cc3c(N4CCCC(CO)C4)nccc3cn2)CC1 (racemic) [Ex 40, (1-(7-((1-(methylsulfonyl)piperidin-4-yl)amino)-2,6-naphthyridin-1-yl)piperidin-3-yl)methanol]	25 to 250 nM		25 to 250 nM	< 25 nM	25 to 250 nM	
CS(=O)(=O)N1CCC(Nc2cc3c(N4CCC(C#N)C4)nccc3cn2)CC1 (racemic) [Ex 45, 1-(7-((1-(methylsulfonyl)piperidin-4-yl)amino)-2,6-naphthyridin-1-yl)pyrrolidine-3-carbonitrile]	25 to 250 nM	> 250 nM	25 to 250 nM	< 25 nM		
CCS(=N)(=O)c1ccc(Nc2cc3c(C#Cc4ccc5c(c4)NC(=O)C54CC4)nccc3cn2)cc1 (racemic) [Ex 376, 6'-((7-((4-(ethylsulfonimidoyl)phenyl)amino)-2,6-naphthyridin-1-yl)ethynyl)spiro[cyclopropane-1,3'-indolin]-2'-one]						IC50 ([1]; x = IC50 25-250 nM, read-out: CDK4/CCND IC50 (25-250 nM)): 25 to 250 nM; IC50 ([2]; x = IC50 25-250 nM, read-out: CDK1/CCNB IC50 (25-250 nM)): 25 to 250 nM; IC50 ([3]; x = IC50 25-250 nM, read-out: CDK6/CCND IC50 (25-250 nM)): 25 to 250 nM
CS(=O)(=O)N1CCC(Nc2cc3c(N4CCC(C#N)C4)nccc3cn2)CC1 (single isomer, unassigned) [Ex 261, 1-(7-((1-(methylsulfonyl)piperidin-4-yl)amino)-2,6-naphthyridin-1-yl)pyrrolidine-3-carbonitrile]	25 to 250 nM	> 250 nM	25 to 250 nM			
CCS(=N)(=O)c1ccc(Nc2cc3c(C#Cc4ccc5c(c4)NC(=O)C54CC4)nccc3cn2)c(OC)c1 (single isomer, unassigned) [Ex 290, 6'-((7-((4-(ethylsulfonimidoyl)-2-methoxyphenyl)amino)-2,6-naphthyridin-1-yl)ethynyl)spiro[cyclopropane-1,3'-indolin]-2'-one]	25 to 250 nM		25 to 250 nM		25 to 250 nM	
CC(C)S(=N)(=O)c1ccc(Nc2cc3c(C#Cc4ccc5c(c4)NC(=O)C54CCC4)nccc3cn2)cc1 (single isomer, unassigned) [Ex 384, 6'-((7-((4-(propan-2-ylsulfonimidoyl)phenyl)amino)-2,6-naphthyridin-1-yl)ethynyl)spiro[cyclobutane-1,3'-indolin]-2'-one]						IC50 [1, 12]: > 250 nM; IC50 [3, 13]: > 250 nM
CCC1(CC)C(=O)Nc2cc(C#Cc3nccc4cnc(Nc5ccc(S(=O)(=O)C6CC6)cc5)cc34)ccc21 [Ex 408, 6-((7-((4-(cyclopropylsulfonyl)phenyl)amino)-2,6-naphthyridin-1-yl)ethynyl)-3,3-diethylindolin-2-one]						IC50 [1, 12]: > 250 nM; IC50 ([2]; x = IC50 >250 nM, read-out: CDK1/CCNB IC50 (>250 nM column)): > 250 nM; IC50 [3, 13]: > 250 nM
CC1(C)C(=O)Nc2cc(C#Cc3nccc4cnc(Nc5ccc(S(C)(=O)=O)cc5F)cc34)ccc21 [Ex 438, 6-((7-((2-fluoro-4-(methylsulfonyl)phenyl)amino)-2,6-naphthyridin-1-yl)ethynyl)-3,3-dimethylindolin-2-one]						IC50 [1, 12]: > 250 nM; IC50 [3, 13]: > 250 nM; IC50 ([4]; x = IC50 <25 nM, read-out: CDK2/CCNE IC50 (<25 nM)): < 25 nM
CC(=O)NCCn1cc2c(C)c(-c3nccc4cnc(Nc5ccc(S(C)(=O)=O)cc5)cc34)ccc2n1 [Ex 632, N-(2-(4-methyl-5-(7-((4-(methylsulfonyl)phenyl)amino)-2,6-naphthyridin-1-yl)-2H-indazol-2-yl)ethyl)acetamide]						IC50 [1, 12]: > 250 nM; IC50 [3, 13]: > 250 nM; IC50 ([4]; x = IC50 25-250 nM, read-out: CDK2/CCNE IC50 (25-250 nM)): 25 to 250 nM

Continued, in another order:

IC50 [1, 5]	IC50 [2, 6]	IC50 [3, 7]	IC50 [4, 8]	IC50 [2, 10]	SMILES	other results
			< 25 nM	25 to 250 nM	CC1CCCCN1c1nccc2cnc(NC3CCN(S(C)(=O)=O)CC3)cc12 (racemic) [Ex 34, 5-(2-methylpiperidin-1-yl)-N-(1-(methylsulfonyl)piperidin-4-yl)-2,6-naphthyridin-3-amine]	IC50 [1, 9]: < 25 nM; IC50 [3, 11]: < 25 nM
25 to 250 nM			< 25 nM	25 to 250 nM	CS(=O)(=O)N1CCC(Nc2cc3c(N4CCCC(C#N)C4)nccc3cn2)CC1 (racemic) [Ex 39, 1-(7-((1-(methylsulfonyl)piperidin-4-yl)amino)-2,6-naphthyridin-1-yl)piperidine-3-carbonitrile]	IC50 [3, 11]: < 25 nM
25 to 250 nM		25 to 250 nM	< 25 nM	25 to 250 nM	CS(=O)(=O)N1CCC(Nc2cc3c(N4CCCC(O)C4)nccc3cn2)CC1 (racemic) [Ex 42, 1-(7-((1-(methylsulfonyl)piperidin-4-yl)amino)-2,6-naphthyridin-1-yl)piperidin-3-ol]	
	> 250 nM	25 to 250 nM			CNC(=O)C1CCCN(c2nccc3cnc(NC4CCN(S(C)(=O)=O)CC4)cc23)C1 (single isomer, unassigned) [Ex 33, N-methyl-1-(7-((1-(methylsulfonyl)piperidin-4-yl)amino)-2,6-naphthyridin-1-yl)piperidine-3-carboxamide]	IC50 [1, 9]: < 25 nM
25 to 250 nM	> 250 nM	25 to 250 nM			CS(=O)(=O)N1CCC(Nc2cc3c(-c4ccc(C#N)nc4)nccc3cn2)CC1 [Ex 61, 5-(7-((1-(methylsulfonyl)piperidin-4-yl)amino)-2,6-naphthyridin-1-yl)picolinonitrile]	
25 to 250 nM		25 to 250 nM			CS(=O)(=O)N1CCC(Nc2cc3c(-c4ccc(N5CCOCC5)cc4)nccc3cn2)CC1 [Ex 65, N-(1-(methylsulfonyl)piperidin-4-yl)-5-(4-morpholinophenyl)-2,6-naphthyridin-3-amine]	IC50 ([4]; 25-250 nM marked x, read-out: CDK2/CCNE IC50 25-250 nM): 25 to 250 nM
